Patent US7976863B2, “Biomedical devices with antimicrobial coatings” (priority 2002, dated 2011)
Ends that are not written are not given here.

Legend:
Assay type in all cases: cell-based
sheep red blood cells = assay: Lysis of sheep red blood cells; conditions: 37° C. for 4 h, various concentrations
Experimental: FIG. 1 is a graph showing the % lysis sheep red blood cells relative to water for various peptides.
(§1) For in vitro cytotoxic testing, solutions of L-Melimine were prepared in PBS (500 μg/ml, 250 μg/ml, 125 μg/ml and 62.5 μg/ml). Solutions were then diluted 1:3 in tissue culture media (EMEM) and added to murine L929 cells for 48 hours. Cells are rinsed in saline then harvested using 0.25% trypsin for 3-5 minutes at ambient temperature. 1 ml of saline is then added to cells and trypsin mixture, a 500 μl aliquot is added to 19.5 ml of saline and counted in a coulter counter in triplicate. Results are compared to unperturbed cultures as well as positive (cyotoxic) controls. Results are expressed as percentage of non-viable cells (100-number of cells in sample/number of cells in unperturbed cells×100). In addition, the ability of the peptides to lyze sheep red blood cells was examined. The sheep red blood cells were washed and resuspended in PBS. Peptides at various concentrations were added to the red blood cells and incubated at 37° C. for 4 h. 100% lysis was obtained using distilled water and 0% lysis was obtained using PBS. Lysis was measured by measuring the amount of haemoglobin released into the PBS after centrifugation to remove whole red blood cells.

P. aeruginosa 6294 [1] = conditions: for minimum concentration required to inhibit bacterial growth, P.a 6284: MIC, peptide in solution, 18 hours at 35° C.
Experimental: (§2) To assess the effect of cationic proteins/peptides in solution against bacterial cells, Psudomonas aeruginosa 6294 and Staphylacoccus aureus 31 cells were grown as for 18 hours in Tryptone Soya Broth (TSB) at 35° C. The cells were then harvested by centrifugation and washed twice in phosphate buffered saline (PBS; NaCl 8 g/l; KCl 0.2 g/l; Na2HPO4 1.15 g/l; KH2PO4 0.2 g/l). The cells were then re-suspended to OD 0.1 at 660 nm in PBS. The cationic peptide was serially diluted from 1 mg/ml and dilutions were added to wells in a 96 well microtitre plate or into 5 ml disposable test-tubes. Controls were bacteria without peptides. Bacteria were incubated for 18 hours at 35° C. and turbidity was measured at 660 nm. A lack of turbidity in the test-tube corresponding to the peptide dilution was considered to be the minimum inhibitory concentration (“MIC”).

S. aureus 31 [2] = assay: MIC in solution (tube/microtitre turbidity); conditions: MIC, peptide in solution, 18 hours at 35° C.
Experimental: as §2

P. aeruginosa 15442 [3] = assay: MIC in solution (tube/microtitre turbidity); conditions: MIC, peptide in solution, 18 hours at 35° C.
S. aureus 31 [4] = assay: Viable counts of bacteria adhered to peptide-adsorbed Etafilcon A lenses; conditions: 500 μg/lens adsorbed on Etafilcon lens, vs uncoated control lens
Experimental: (§3) For conducting viable counts, Etafilcon A lenses were removed from the manufacturers vials, washed three times in 1 ml PBS, dried and then coated by pipetting 500 μg L-Melimine onto the contact lenses (melimine was dissolved in […] and air dried onto contact lenses) overnight at ambient temperature in a fume hood. Lenses were rehydrated in PBS for 10 minutes and 0.5 ml of 1×10^8 bacterial cells/ml, including gram-positive S. aureus and gram-negative P. aeruginosa were added to the lenses. After incubation at ambient temperature for either 10 min or 5 hours, the lenses were washed three times in PBS to remove non-adherent or loosely adherent bacteria. Lenses were then homogenized using tissue homogenizer and 1 ml PBS until lens disintegration (about 1-2 minutes). Serial dilutions were then made according to the technique of Miles and Misra and aliquots (20 μL) plated out on nutrient agar. After incubation overnight at 37° C., viable bacteria were determined and results expressed as colony forming units/mm^2 after calculation of the surface area of the lens (approximately 310 mm^2). The effects are calculated based upon comparison to adhesion control lens that was not coated with cationic protein/peptide before bacterial adhesion testing.
(§4) Etafilcon lenses, commercially available from Johnson & Johnson as ACUVUE® Brand contact lenses) were soaked as in Example 2, above, except that the L-melimine concentration was varied: 125 μg, 250 μg or 500 μg/lens. After absorption of L-Melimine onto the hydrogel polymer, the lenses were rehydrated with PBS, and exposed to S. aureus or P. saeruginosa for either 10 minutes or five hours, as described in Example 2. After exposure, the polymer was evaluated for numbers of microorganisms the standard Miles and Misra plate count assay.
(§5) Stock solutions (50 mg/ml) were prepared containing the L-Protattin in distilled water. 500 μg of the stock solution was adsorbed to a contact lens made from Etafilcon A as for L-melamine in Example 2 for 18 hours at ambient temperature in a fume hood. The subsequent experimental details are as described in Example 2, above and viable bacteria was measured.
(§6) Contact lenses were coated and dried (as in Example 2) and D-Melimine applied at a concentration of either 250 μg per lens or 500 μg per lens. D-melimine was made using D-amino acids as for L-melimine using standard peptide synthesis techniques (e.g. Fmoc). Assays for measuring inhibition of bacterial adhesion were performed as in Example 2.

P. aeruginosa 6294 [5] = assay: as above; conditions: 500 μg/lens adsorbed on Etafilcon lens, vs uncoated control lens
Experimental: as §3, §4, §5, §6

S. aureus CK5 [6] = assay: as above; conditions: 500 μg/lens adsorbed on Etafilcon A lens, vs uncoated control lens
Experimental: as §3, §5

P. aeruginosa 15442 [7] = assay: as above; conditions: 500 μg/lens adsorbed on Etafilcon A lens, vs uncoated control lens
Experimental: as §3, §5

S. aureus CK5 [8] = assay: MIC in solution (tube/microtitre turbidity); conditions: MIC, peptide in solution, 18 hours at 35° C.
S. aureus 31 [9] = assay: Heat stability study: inhibition of growth in solution after autoclaving; conditions: 1000 μg/ml in PBS mixed with equal volume of bacteria
Experimental: (§7) A heat stability study was conducted to evaluate whether post-exposure of the L-Melimine to autoclaving would alter the ability of the peptide to prevent bacterial growth.
(§8) Bacteria (P. aeruginosa 6294 and S. aureus 31) were grown for 18 hours at 35° C. in TSB, then washed twice in PBS. The bacteria were resuspended in PBS to an optical density of 0.1 at 660 nm. L-Melimine was dissolved in PBS to a concentration of 1000 μg/ml and autoclaved at 121° C. for 15 minutes. Equal volumes of bacterial suspension and L-Melimine were then added together and incubated at 35° C. for periods of up to 72 hours. Controls were non-autoclaved L-Melimine. After 24, 48 and 72 hours, aliquots of the bacteria/L-Melimine solutions were removed and the number of viable bacteria were counted using the standard Miles and Misra plate count assay.

P. aeruginosa 6294 [10] = assay: as above; conditions: 1000 μg/ml in PBS mixed with equal volume of bacteria
Experimental: as §7, §8

P. aeruginosa = test system: P. aeruginosa
Experimental: as §2
(§9) L-Melimine was evaluated to determine its potential to induce resistance in P. aeruginosa and S. aureus. Prior to L-Melimine exposure, MICs of both strains were determined as in Example 1. […] Bacteria were grown overnight in TSB. Bacteria were inoculated 1:100 into fresh TSB containing sub-inhibitory levels of L-Melimine and incubated overnight. Bacteria from the broth containing sub-inhibitory levels (column 2, Table 9) were then re-incubated in fresh TSB with the same concentration of L-Melimine. This was repeated for 30 consecutive days. After passaging, a MIC for the bacteria from the last passage was determined. Any increase in MIC would indicate a potential for bacteria to become resistant.

S. aureus = test system: S. aureus
Experimental: as §2, §9

murine L929 cells = assay: In vitro cytotoxic testing; conditions: for % cell inhibition: 48 hours
Experimental: as §1

[11] = Autoclaved at 121° C. for 15 minutes
[12] = Treatment None (non-autoclaved)

Molecule: CC[C@H](C)[C@H](NC(=O)CN)C(=O)NCC(=O)N[C@@H](C)C(=O)N[C@H](C(=O)N[C@@H](CC(C)C)C(=O)N[C@@H](CCCCN)C(=O)N[C@H](C(=O)N[C@@H](CC(C)C)C(=O)N[C@H](C(=O)N[C@H](C(=O)NCC(=O)N[C@@H](CC(C)C)C(=O)N1CCC[C@H]1C(=O)N[C@@H](C)C(=O)N[C@@H](CC(C)C)C(=O)N[C@H](C(=O)N[C@@H](CO)C(=O)N[C@@H](Cc1c[nH]c2ccccc12)C(=O)N[C@H](C(=O)N[C@@H](CCCCN)C(=O)N[C@@H](CCCNC(=N)N)C(=O)N[C@@H](CCCCN)C(=O)N[C@@H](CCCNC(=N)N)C(=O)N[C@@H](CCC(N)=O)C(=O)N[C@@H](CCC(N)=O)C(N)=O)[C@@H](C)CC)[C@@H](C)CC)[C@@H](C)O)[C@@H](C)O)C(C)C)C(C)C [Mellitin]
- hemolysis of red blood cells (FIG. 1, % lysis relative to water) (sheep red blood cells): extensive hemolysis
- minimum concentration required to inhibit bacterial growth, P.a 6284 (P. aeruginosa 6294 [1]): R (R = resistant, highest concentration of peptide = 1000 ug/Ml)
- minimum concentration required to inhibit bacterial growth, S.a. 31 (S. aureus 31 [2]): 15 µg/mL

Molecule: PRRRRSSSRPVRRRRRPRVSRRRRRRGGRRRR [Protamine, full-length protamine comparison]
- minimum concentration required to inhibit bacterial growth, P.a 6284 (P. aeruginosa 6294 [1]): R (R = resistant, highest concentration of peptide = 1000 ug/Ml)
- minimum concentration required to inhibit bacterial growth, S.a. 31 (S. aureus 31 [2]): R (R = resistant, highest concentration of peptide = 1000 ug/Ml)

Molecule: RPRVSRRRRRRGGRRRRTLISWIKNKRKQ (RPRVSRRRRRRGGRRRRTLISWIKNKRKQ) [Prottatin]
- minimum concentration required to inhibit bacterial growth, P.a 15442 (P. aeruginosa 15442 [3]): 1000 µg/mL
- % reduction at 10 min (S. aureus 31 [4]): 64 ± 18 (6) %
- % reduction at 5 hrs (S. aureus 31 [4]): 43 ± 33 (6) %
- % reduction at 10 min (P. aeruginosa 6294 [5]): 97 ± 5 (6) %
- % reduction at 5 hrs (P. aeruginosa 6294 [5]): 57 ± 39 (6) %
- minimum concentration required to inhibit bacterial growth, P.a 6284 (P. aeruginosa 6294 [1]): 500 µg/mL
- % reduction at 10 min (S. aureus CK5 [6]): 6 ± 62 (7) %
- % reduction at 5 hrs (S. aureus CK5 [6]): 3 ± 25 (7) %
- % reduction at 10 min (P. aeruginosa 15442 [7]): 94 ± 4 (8) %
- % reduction at 5 hrs (P. aeruginosa 15442 [7]): 63 ± 32 (7) %
- minimum concentration required to inhibit bacterial growth, S.a. CK5 (S. aureus CK5 [8]): 500 µg/mL
- minimum concentration required to inhibit bacterial growth, S.a. 31 (S. aureus 31 [2]): 1000 µg/mL

Molecule: RPRVSRRRRRRGGRRRR [Protamine (1-17), 1-17 segment of protamine, segment B]
- minimum concentration required to inhibit bacterial growth, P.a 15442 (P. aeruginosa 15442 [3]): R (R = resistant, highest concentration of peptide = 1000 ug/Ml)
- minimum concentration required to inhibit bacterial growth, P.a 6284 (P. aeruginosa 6294 [1]): R (R = resistant, highest concentration of peptide = 1000 ug/Ml)
- minimum concentration required to inhibit bacterial growth, S.a. CK5 (S. aureus CK5 [8]): 1000 µg/mL
- minimum concentration required to inhibit bacterial growth, S.a. 31 (S. aureus 31 [2]): R (R = resistant, highest concentration of peptide = 1000 ug/Ml)

Molecule: TLISWIKNKRKQ [Mellitin (15-26), 15-26 segment of mellitin, segment A]
- minimum concentration required to inhibit bacterial growth, P.a 15442 (P. aeruginosa 15442 [3]): R (R = resistant, highest concentration of peptide = 1000 ug/Ml)
- minimum concentration required to inhibit bacterial growth, P.a 6284 (P. aeruginosa 6294 [1]): R (R = resistant, highest concentration of peptide = 1000 ug/Ml)
- minimum concentration required to inhibit bacterial growth, S.a. CK5 (S. aureus CK5 [8]): R (R = resistant, highest concentration of peptide = 1000 ug/Ml)
- minimum concentration required to inhibit bacterial growth, S.a. 31 (S. aureus 31 [2]): R (R = resistant, highest concentration of peptide = 1000 ug/Ml)

Molecule: TLISWIKNKRKQRPRVSRRRRRRGGRRRR [Melimine, TLISWIKNKRKQRPRVSRRRRRRGGRRRR]
- % inhibition of growth @ 24 hours (S. aureus 31 [9]; [11]): 100 (3) %
- % inhibition of growth @ 48 hours (S. aureus 31 [9]; [11]): 100 (3) %
- % inhibition of growth @ 72 hours (S. aureus 31 [9]; [11]): 99 (2) %
- % inhibition of growth @ 24 hours (S. aureus 31 [9]; [12]): 100 (5) %
- % inhibition of growth @ 48 hours (S. aureus 31 [9]; [12]): 100 (3) %
- % inhibition of growth @ 72 hours (S. aureus 31 [9]; [12]): 99 (2) %
- % inhibition of growth @ 24 hours (P. aeruginosa 6294 [10]; [11]): 100 (3) %
- % inhibition of growth @ 48 hours (P. aeruginosa 6294 [10]; [11]): 100 (3) %
- % inhibition of growth @ 72 hours (P. aeruginosa 6294 [10]; [11]): 100 (2) %
- % inhibition of growth @ 24 hours (P. aeruginosa 6294 [10]; [12]): 100 (5) %
- % inhibition of growth @ 48 hours (P. aeruginosa 6294 [10]; [12]): 100 (3) %
- % inhibition of growth @ 72 hours (P. aeruginosa 6294 [10]; [12]): 100 (2) %
- hemolysis of red blood cells (FIG. 1, % lysis relative to water) (sheep red blood cells): least amount of hemolysis of any peptide/protein
- MIC, P. aeruginosa resistant up to (P. aeruginosa 6294 [1]; text summary of Table 1, highest concentration used): > 1000 µg/mL
- MIC post-passage (P. aeruginosa; after 30 consecutive days passage): 4000 µg/mL
- MIC prior to passage (P. aeruginosa; starting concentration raised to 15 mg/ml, procedure of Example 1): 4000 µg/mL
- MIC post-passage (S. aureus; after 30 consecutive days passage at 30 μg/ml): 63 µg/mL
- MIC prior to passage (S. aureus; procedure of Example 1): 125 µg/mL
- % cell inhibition (murine L929 cells; 62.5 μg/ml solution in PBS diluted 1:3 in EMEM): 20%
- % cell inhibition (murine L929 cells; 125 μg/ml solution in PBS diluted 1:3 in EMEM): 8%
- % cell inhibition (murine L929 cells; 250 μg/ml solution in PBS diluted 1:3 in EMEM): 26%
- % cell inhibition (murine L929 cells; 500 μg/ml solution in PBS diluted 1:3 in EMEM): 44%
- cytotoxicity (in words) (murine L929 cells; at 500 μg/ml): marginally cytotoxic
- cytotoxicity (in words) (murine L929 cells; at all other concentrations (250, 125, 62.5 μg/ml)): non-cytotoxic
